Assay results: patent US12577530B2, “Generation of a population of hindbrain cells and hindbrain-like organoids from pluripotent stem cells” (The Regents of the University of California, priority 2018, dated 2026)

Assays:
WTB and WTC hPSCs = test: WNT activation (CHIR 99021) during V2a interneuron differentiation, flow cytometry of CHX10; assay type: cell-based, human; details: 2 μM CHIR99021 pretreatment two days and first 7 days of protocol, compared to untreated (UT) controls
Method: To examine pretreatment effects of WNT, hiPSCs were plated onto a Matrigel-coated 24-well plate at 125,000 cells/cm^2 in mTeSR supplemented with 10 μM ROCK inhibitor and 2 μM CHIR99021. Two days later, the cell layers were dissociated with Accutase and the differentiation was performed as described above with the addition of 2 μM CHIR99021. The CHIR99021 treatment was continued until day 7.

hPSCs = test: Monolayer hindbrain differentiation with varied pur or RA concentration, flow cytometry of CHX10 and LHX5; assay type: cell-based, human
Method: hPSCs were seeded in mTeSR supplemented with 10 μM ROCK inhibitor and dual SMAD inhibitors 0.2 μM LDN193189 and 10 μM SB431542 (StemGent, Cambridge, MA) at 5,000-100,000 cells/cm^2 onto 24-well plates coated with Matrigel. On day 3, medium was changed to m TeSR supplemented with dual SMAD inhibitors only. On day 5, the base medium was switched to neural induction medium (DMEM F: 12 (Corning, Corning, NY), N2 supplement (Life Technologies, Carlsbad, CA), L-Glutamine (VWR), 2 μg/ml heparin (Sigma Aldrich, St. Louis, MO), non-essential amino acids (Mediatech INC, Manassas, VA), penicillin-streptomycin (VWR) supplemented with fresh 0.4 ug/ml ascorbic acid (Sigma Aldrich) and 10 ng/ml brain derived neurotrophin factor (BDNF, R&D Systems, Minneapolis, MN)) supplemented with dual SMAD inhibitors and 10 nM-10 μM retinoic acid (Sigma Aldrich). On day 7, dual SMAD inhibition was ceased and 10 nM-10 μM retinoic acid, 10 nM-10 μM pur (EMD Millipore, Darmstast, Germany) and 1 μM N—[N-(3,5-difluorophenacetyl)-L-alanyl]-S-phenylglycine t-butyl ester (DAPT) were added to the neural induction medium. Medium was changed every 2-3 days throughout the differentiation, with fresh supplements added each time for up to 17 days.
At day 17 of differentiation, cells were completely dissociated as described in 3.3.3 and stained with the Transcription Factor Buffer Set, which includes a fixation/permeabilization (FP) and wash/permeabilization (WP) buffer (BD Biosciences, Franklin Lakes, NJ). Dissociated samples were first fixed for 45 minutes at 4° C. in the FP buffer followed by a 20-minute block with WP buffer containing 5% normal donkey serum (NDS, Jackson Laboratory, Bay Harbor, ME). Primary antibodies against CHX10, LHX5, PHOX2A, and PHOX2B (Table 1) and the proper matching species isotype control were added into WP buffer containing 2% NDS and incubated at 4° C. for 45 minutes. After two washes with WP buffer, secondary antibodies donkey anti-mouse IgG, ALEXA FLUOR™ 488 (a fluorescent compound; Life Technologies), at a dilution of 1:200, were added to WP buffer and incubated at 4° C. for 45 minutes. After two washes with WP buffer, samples were passed through a 35-μm filter before assessing with a BD ACCURI™ C6 (BD) cytometer (minimum 10,000 events). Cytometry analysis was performed using FlowJo V10 (Flowjo, Ashland, OR).

Human PSCs (organoids) [1] = test: Organoid diameter from phase contrast images; assay type: cell-based
Method: Human PSCs were seeded at 125 k cells/cm^2 in mTeSR supplemented with 10 μM ROCK inhibitor and 2 μM CHIR99102. For WNT treated cells, CHIR was supplemented into the media at each feed through day 7. 48 hours later, cell layers were dissociated using Accutase and counted. For organoid culture, 800 μm pyramidal PDMS inserts were placed into 24-well plates. 1 ml mTeSR containing 10 μM ROCK inhibitor was added to the wells containing the molds and the plate was centrifuged at 2,000×g for 3 minutes to get rid of any bubbles. Dissociated cells, either hPSCs or WNT pre-treated cells, were then added slowly into the wells at 10,000 cells per organoid in mTeSR supplemented with 10 μM ROCK inhibitor, 0.2 LDN193189, and 10 μM SB431542 ([…], Cambridge, MA). […] To change the media on the cells for the rest of the differentiation, the organoids were pipetted into a conical and allowed to settle. Old media was aspirated off and new media was used to resuspend the organoids and transfer them back to the 6 well. On day 3, medium was changed to mTeSR supplemented with dual SMAD inhibitors only. […] Phase contrast images of the organoids were taken using the EVOS® FL Imaging System. The size analysis performed in FIG. 12 was performed manually using Image J. The size analysis performed in FIG. 13 was done using a Python script to first segment the organoids using a watershed segmentation algorithm. […]

Human PSCs (organoids) [2] = test: 3D organoid hindbrain differentiation, flow cytometry of CHX10, LHX5, PHOX2A, PHOX2B at day 17; assay type: cell-based
Method: Human PSCs were seeded at 125 k cells/cm^2 in mTeSR supplemented with 10 μM ROCK inhibitor and 2 μM CHIR99102. For WNT treated cells, CHIR was supplemented into the media at each feed through day 7. 48 hours later, cell layers were dissociated using Accutase and counted. For organoid culture, 800 μm pyramidal PDMS inserts were placed into 24-well plates. 1 ml mTeSR containing 10 μM ROCK inhibitor was added to the wells containing the molds and the plate was centrifuged at 2,000×g for 3 minutes to get rid of any bubbles. Dissociated cells, either hPSCs or WNT pre-treated cells, were then added slowly into the wells at 10,000 cells per organoid in mTeSR supplemented with 10 μM ROCK inhibitor, 0.2 LDN193189, and 10 μM SB431542 ([…], Cambridge, MA). […] To change the media on the cells for the rest of the differentiation, the organoids were pipetted into a conical and allowed to settle. Old media was aspirated off and new media was used to resuspend the organoids and transfer them back to the 6 well. On day 3, medium was changed to mTeSR supplemented with dual SMAD inhibitors only. […] To dissociate organoid cultures, samples were collected and washed with 1 mL of PBS. The organoids were then transferred to 1 well of a 6-well plate with 2 ml of accutase and incubated on the rotary at 37° C. for 15 minutes. […] The dissociated cells were then transpired to a 15 mL conical and diluted with 3 times the volume of PBS.

organoids = test: Calcium imaging of maturing organoids (Ca^2+ fluctuations); assay type: cell-based, human; details: day 33 onward
Method: On day 17 of differentiation, organoids were switched to neural maturation medium (BRAINPHYS™ (neurophysiological basal medium) plus SM1 supplement (Stemcell Technologies (Bardy, van den Hurk et al. 2016)) supplemented with 10 ng/ml of BDNF, GDNF, CNTF, and IGF, R&D Systems). Medium was completely changed every 5 days for the remainder of the culture duration.
Endogenous GCaMP6 signal was used to detect calcium flux in differentiations performed with the WTC GCaMP6 cell line. Alternatively, cultures of cells that lacked GCaMP expression were washed with PBS and the medium was replaced with NEUROBASAL™ (neural cell culture medium) plus Fluo4 AM (5 μM, Life Technologies) for 1 hour at 37° C. The cultures were then washed with fresh Neurobasal and allowed to recover for an additional […] at 37° C. before recording on a Zeiss Axio Observer. To assess Ca^2+ fluctuations, cultures were imaged at a rate of 17 frames per second. To analyze the results, ROI were selected by hand using Zen software. For organoids, the outer edge of the tissue was selected and for monolayer cultures, individual neurons were selected. The relative fluorescent units (RFU) measured at the ROIs were processed using Python3. A detrend function with a robust linear regression was performed for normalization and a 4 Hz lowpass Butterworth filter was applied to minimize noise.

[3] = pur 100 nM and RA 100 nM, day 17 (FIG. 12F)

Cc1cnc(-c2cnc(NCCNc3ccc(C#N)cn3)nc2-c2ccc(Cl)cc2Cl)[nH]1 [CHIR 99021, 6-[[2-[[4-(2,4-Dichlorophenyl)-5-(5-methyl-1H-imidazol-2-yl)-2-pyrimidinyl]amino]ethyl]amino]-3-pyridinecarbonitrile]
CHX10 percentage (WTB and WTC hPSCs): increased

CC1=C(/C=C/C(C)=C/C=C/C(C)=C/C(=O)O)C(C)(C)CCC1 [RA, retinoic acid]
RA concentration at which CHX10 percentage peaked (hPSCs; pur constant at 100 nM): 30 to 100 nM | RA concentration at which LHX5 percentage peaked (hPSCs; pur constant at 100 nM): 10 nM

c1ccc2c(Oc3nc(Nc4ccc(N5CCOCC5)cc4)c4ncn(C5CCCCC5)c4n3)cccc2c1 [pur, 9-Cyclohexyl-N-[4-(4-morpholinyl)phenyl]-2-(1-naphthalenyloxy)-9H-purin-6-amine]
organoid diameter (Human PSCs (organoids) [1]; 10 nM and 100 nM pur groups, throughout the differentiation): ~500 μm | organoid diameter (Human PSCs (organoids) [1]; 1 μM pur group, by day 17): approximately 700 μm | percentages of V2a, V0 and chemosensing subtypes (Human PSCs (organoids) [2]; 10 nM pur, day 17 (FIG. 13D)): low percentages of all subtypes | PHOX2A and PHOX2B percentages (Human PSCs (organoids) [2]; 100 nM and 1 μM pur condition versus 10 nM, day 17): highest | percentage of CHX10 positive cells (Human PSCs (organoids) [2]; 100 nM pur, day 17 (FIG. 13D)): 3.5% | percentage of LHX5 positive cells (Human PSCs (organoids) [2]; 100 nM pur, day 17 (FIG. 13D)): 36.5% | percentage of CHX10 positive cells (Human PSCs (organoids) [2]; 1 μM pur, day 17 (FIG. 13D)): 23.3% | percentage of LHX5 positive cells (Human PSCs (organoids) [2]; 1 μM pur, day 17 (FIG. 13D)): 3.1% | percentage of CHX10^+ cells (Human PSCs (organoids) [2]; [3]): < 5% | percentage of LHX5^+ cells (Human PSCs (organoids) [2]; [3]): ~80% | percentage of PHOX2A^+ cells (Human PSCs (organoids) [2]; [3]): < 5% | percentage of PHOX2B^+ cells (Human PSCs (organoids) [2]; [3]): < 5% | LHX5 percentage (hPSCs; at 10 and 30 nM pur compared to 100 nM pur, RA kept at 100 nM, p<0.05): increased | CHX10 percentage (hPSCs; at 30 and 100 nM pur, RA kept at 100 nM, p<0.05): greater | periodic synchronous Ca^2+ fluctuations (organoids; organoids differentiated with 10 nM pur (V0^lowV2a^low)): few periodic synchronous events | periodic synchronous Ca^2+ fluctuations (organoids; organoids differentiated with 100 nM pur (V0^highV2a^low)): more rhythmic overall | periodic synchronous Ca^2+ fluctuations (organoids; organoids differentiated with 1 μM pur (V0^lowV2a^high)): more sporadic
